# No end group written: not given here.
# Columns and labels:
# [1] = tested on: E. coli B; test: Growth inhibition of E. coli B cultures in LB medium (optical density after 24 h); assay type: cell-based
# Description: Bacterial growth was monitored by measuring the optical density after 24 h. […] For this, said carboxyl groups were activated with 1-ethyl-3-(3-dimethylaminopropyl)carbodiimide hydrochloride and N-hydroxy-sulfosuccinimide, and amidated by subsequent addition of ammonia.
# [2] = tested on: Bacillus subtilis; details: compared to the starting fusion; cited from earlier work
# [3] = tested on: Escherichia coli; details: compared to the starting fusion; cited from earlier work
substance,measurement,setting,value
PGKWKLFKKIPKFLHLAKKFG (P18 Peptide) [antimicrobial peptide released by acidic cleavage from a recombinant repetitive precursor protein],peptide concentration for complete inhibition of growth (optical density at 600 nm after 24 h<0.15),"[1]; E. coli B in LB medium, starting optical density 0.1 at 600 nm, shaking at 37° C., 24 h",≥ 31 ppm
"KWKLFKKIPKFLHLAKKF (P18 Peptide) [SEQ ID NO:6, cecropin A-magainin 2 fusion peptide development described by Shin et al. 1999]",antibacterial activity with respect to Bacillus subtilis,[2],not adversely affected
same,antibacterial activity with respect to Escherichia coli,[3],not adversely affected
amidated P18 peptide: P18 peptide (SEQ ID NO: 23) whose C-terminal carboxyl group is amidated (PGKWKLFKKIPKFLHLAKKFG-NH2),"antimicrobial activity after amidating the C-terminal carboxyl group, relative to non-amidated P18","[1]; C-terminal carboxyl group amidated (EDC / N-hydroxy-sulfosuccinimide, ammonia)",improve the antimicrobial activity further

# — patent publication US9481719B2, “Recombinant production of peptides” (BASF SE, priority 2009, dated 2016)
